This note sets out measurements from patent US7737136B2 (N.V. Organon, priority 2002, dated 2010).

What is called pEC50 is −log10 of the EC50, conventionally taken in molar units.

pEC50: −log10 of the molar value. A value given as a limit tells only on which side of the number the result lay.

The first experiment has as its target T1, human progesterone receptor-B (Homo sapiens, UniProt P06401).
T1 construct: expressed in transfected cells; host or cells: Chinese hamster ovary (CHO) cells, line CHO-PRB-pMMTV-LUC 1E2-A2
T1 sequence (P06401 1-933): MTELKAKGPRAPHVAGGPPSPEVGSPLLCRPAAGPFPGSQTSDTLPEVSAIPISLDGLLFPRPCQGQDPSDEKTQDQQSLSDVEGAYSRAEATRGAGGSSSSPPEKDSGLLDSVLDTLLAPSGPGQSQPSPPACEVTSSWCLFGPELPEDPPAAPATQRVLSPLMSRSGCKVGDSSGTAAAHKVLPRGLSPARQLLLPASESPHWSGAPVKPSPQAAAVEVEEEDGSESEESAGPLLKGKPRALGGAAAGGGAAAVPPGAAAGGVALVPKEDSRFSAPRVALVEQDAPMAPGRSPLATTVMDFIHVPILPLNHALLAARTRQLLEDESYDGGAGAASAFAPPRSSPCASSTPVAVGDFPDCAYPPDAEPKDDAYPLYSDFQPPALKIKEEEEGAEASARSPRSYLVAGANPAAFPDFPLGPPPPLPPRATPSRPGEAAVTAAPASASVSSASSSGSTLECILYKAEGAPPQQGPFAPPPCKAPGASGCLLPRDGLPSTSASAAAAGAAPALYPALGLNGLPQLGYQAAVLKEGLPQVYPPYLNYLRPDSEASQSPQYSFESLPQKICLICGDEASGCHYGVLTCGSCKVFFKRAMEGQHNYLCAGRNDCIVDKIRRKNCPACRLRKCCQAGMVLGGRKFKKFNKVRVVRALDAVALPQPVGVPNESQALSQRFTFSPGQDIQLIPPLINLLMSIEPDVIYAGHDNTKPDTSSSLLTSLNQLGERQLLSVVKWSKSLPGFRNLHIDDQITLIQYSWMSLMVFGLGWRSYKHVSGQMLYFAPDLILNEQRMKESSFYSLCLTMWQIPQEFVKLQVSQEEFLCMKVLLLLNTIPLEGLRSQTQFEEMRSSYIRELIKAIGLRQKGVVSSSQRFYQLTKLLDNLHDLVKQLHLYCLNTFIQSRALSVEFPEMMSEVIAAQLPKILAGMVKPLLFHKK
Kind of experiment: Progesterone receptor-B transactivation assay, progestagenic (agonist) activity, CHO-PRB-pMMTV-LUC 1E2-A2 cells. In kind it is cell-based.
Settings: not given
How it is done: The (anti-)progestagenic activity of a compound of the invention (EC 50 and intrinsic activity) was determined in an in vitro bioassay of Chinese hamster ovary (CHO) cells stably transfected with the human progesterone receptor-B expression plasmid and with a reporter plasmid in which the MMTV-promoter is linked to the luciferase reporter gene. […] The cells were cultured with charcoal-treated supplemented defined bovine calf serum from Hyclone (Utah, USA) in Dulbecco's Modified Eagles Medium/Nutrient Mixture F-12 (DMEM/HAM F12 in ratio 1:1) from Gibco (Paisley, UK).
`O=C(CF)N[C@H]1CCCN2c3cc(Cl)ccc3Oc3ccccc3[C@H]12` (relative stereo) [Example 11, trans-N-(7-Chloro-2,3,4,14b-tetrahydro-1H-dibenzo[b,f]pyrido[1,2-d][1,4]oxazepin-1-yl)-2-fluoroacetamide] had a negative logarithm of the EC50 (pEC50) of 7.00 to 8.00.

The same experiment, now with this note: CHO cells stably transfected with human progesterone receptor-B and MMTV-luciferase reporter; read-out: Progestagenic activity EC50.
`COc1cccc2c1N1CCC[C@H](NC(=O)C(F)(F)F)[C@H]1c1ccccc1O2` (relative stereo) [Example 55, trans-N-(2,3,4,14b-Tetrahydro-6-methoxy-1H-dibenzo[b,f]pyrido[1,2-d][1,4]oxazepin-1-yl)-2,2,2-trifluoroacetamide]: the pEC50 is 7.00 to 8.00. Turning to `O=C(N[C@H]1CCCN2c3c(ccc(Cl)c3Cl)Oc3cc(Br)ccc3[C@H]12)C(F)(F)F` (relative stereo) [Example 71, trans-N-(12-Bromo-6,7-dichloro-2,3,4,14b-tetrahydro-1H-dibenzo[b,f]pyrido[1,2-d][1,4]oxazepin-1-yl)-2,2,2-trifluoroacetamide], the pEC50 is more than 8.00. In the case of `C=Cc1cccc2c1N1CCC[C@H](NC(=O)C(F)(F)F)[C@H]1c1ccccc1O2` (relative stereo) [Example 54, trans-N-(6-Ethenyl-2,3,4,14b-tetrahydro-1H-dibenzo[b,f]pyrido[1,2-d][1,4]oxazepin-1-yl)-2,2,2-trifluoroacetamide], the pEC50 is more than 8.00. With `FCC(=S)N[C@H]1CCCN2c3cc(Cl)ccc3Oc3ccccc3[C@H]12` [Example 22], the pEC50 was more than 8.00. Turning to `CCC(=O)Nc1ccc2c(c1)N1CCC[C@H](NC(=O)C(F)(F)F)[C@H]1c1ccccc1O2` (relative stereo) [Example 67, trans-N-[2,3,4,14b-Tetrahydro-7-[(1-oxopropyl)amino]-1H-dibenzo[b,f]pyrido[1,2-d][1,4]oxazepin-1-yl]-2,2,2-trifluoroacetamide], the negative logarithm of the EC50 (pEC50) was 5.00 to 7.00. With `NCC(=S)N[C@H]1CCCN2c3cc(Cl)ccc3Oc3ccccc3[C@H]12` (relative stereo) [Example 27], the pEC50 was 5.00 to 7.00. `FC(F)C(=S)N[C@H]1CCCN2c3cc(Cl)ccc3Oc3ccccc3[C@H]12` (relative stereo) [Example 23]: the pEC50 is more than 8.00. For `N[C@H]1CCCN2c3cc(Cl)ccc3Oc3ccccc3[C@H]12` (relative stereo) [Example 3, trans-7-Chloro-2,3,4,14b-tetrahydro-1H-dibenzo[b,f]pyrido[1,2-d][1,4]oxazepine-1-amine], the negative-log EC50 (pEC50) is 5.00 to 7.00. Same read-out and setting: then `O=C(N[C@H]1CCCN2c3c(Cl)cccc3Oc3ccccc3[C@H]12)C(F)(F)F` (relative stereo) [Example 42B], with 5.00 to 7.00; and `O=C(N[C@H]1CCCN2c3cc(Cl)ccc3Oc3cc(Br)ccc3[C@H]12)C(F)(F)F` (relative stereo) [Example 68, trans-N-(12-Bromo-7-chloro-2,3,4,14b-tetrahydro-1H-dibenzo[b,f]pyrido[1,2-d][1,4]oxazepin-1-yl)-2,2,2-trifluoroacetamide], with 7.00 to 8.00. On to `CN(C(=O)C(F)(F)F)[C@H]1CCCN2c3cc(Cl)ccc3Oc3ccccc3[C@H]12` (relative stereo) [Example 28, trans-N-(7-Chloro-2,3,4,14b-tetrahydro-1H-dibenzo[b,f]pyrido[1,2-d][1,4]oxazepin-1-yl)-2,2,2-trifluoro-N-methylacetamide], for which the negative-log EC50 (pEC50) was 5.00 to 7.00.

For `O=C(N[C@H]1CCCN2c3cc(Cl)c(NS(=O)(=O)c4ccccc4)cc3Oc3ccccc3[C@H]12)C(F)(F)F` (relative stereo) [Example 45, trans-N-(7-Chloro-2,3,4,14b-tetrahydro-8-[(phenylsulfonyl)amino]-1H-dibenzo[b,f]pyrido[1,2-d][1,4]oxazepin-1-yl)-2,2,2-trifluoroacetamide], the pEC50 was 7.00 to 8.00.

Turning to `N#Cc1cc(F)cc2c1N1CCC[C@H](NC(=O)C(F)(F)F)[C@H]1c1ccccc1O2` (relative stereo) [Example 58, trans-8-Fluoro-2,3,4,14b-tetrahydro-1-[(trifluoroacetyl)amino]-1H-dibenzo[b,f]pyrido-[1,2-d][1,4]oxazepine-6-carbonitrile], the negative-log EC50 (pEC50) was more than 8.00. Consider `Cc1ccc2c(c1)Oc1ccc(Cl)cc1N1CCC[C@H](NC(=O)C(F)(F)F)[C@@H]21` (relative stereo) [Example 70, trans-N-(7-Chloro-2,3,4,14b-tetrahydro12-methyl-1H-dibenzo[b,f]pyrido[1,2-d][1,4]oxazepin-1-yl)-2,2,2-trifluoroacetamide], for which the pEC50 is 7.00 to 8.00. The same measure, in the same setting: the value for `O=C(N[C@H]1CCCN2c3cc(Cl)ccc3Oc3cc(F)c(F)cc3[C@H]12)C(F)(F)F` (relative stereo) [Example 75, trans-N-(7-Chloro-12,13-difluoro-2,3,4,14b-tetrahydro-1H-dibenzo[b,f]pyrido[1,2-d][1,4]oxazepin-1-yl)-2,2,2-trifluoroacetamide] was more than 8.00. Still for that read-out and setting: then `FC(F)(F)C(=S)N[C@H]1CCCN2c3ccccc3Oc3ccccc3[C@H]12` (relative stereo) [Example 25], with more than 8.00; and `O=C(N[C@H]1CCCN2c3c(ccc(Cl)c3Cl)Oc3ccccc3[C@H]12)C(F)(F)F` (relative stereo) [Example 38B, trans-N-(6,7-Dichloro-2,3,4,14b-tetrahydro-1H-dibenzo[b,f]pyrido[1,2-d][1,4]oxazepin-1-yl)-2,2,2-trifluoroacetamide], with more than 8.00; and `C=Cc1cc(F)cc2c1N1CCC[C@H](NC(=O)C(F)(F)F)[C@H]1c1ccccc1O2` (relative stereo) [Example 59, trans-N-(6-Ethenyl-8-fluoro-2,3,4,14b-tetrahydro-1H-dibenzo[b,f]pyrido[1,2-d][1,4]-oxazepin-1-yl)-2,2,2-trifluoroacetamide], with more than 8.00. With `NCC(=O)N[C@H]1CCCN2c3cc(Cl)ccc3Oc3ccccc3[C@H]12` (relative stereo) [Example 16, trans-2-Amino-N-(7-chloro-2,3,4,14b-tetrahydro-1H-dibenzo[b,f]pyrido[1,2-d][1,4]oxazepin-1-yl)acetamide], the pEC50 was 5.00 to 7.00. The same measure, in the same setting: the value for `O=C(N[C@H]1CCCN2c3cc(Br)ccc3Oc3ccccc3[C@H]12)C(F)(F)F` (relative stereo) [Example 61, trans-N-(7-Bromo-2,3,4,14b-tetrahydro-1H-dibenzo[b,f]pyrido[1,2-d][1,4]oxazepin-1-yl)-2,2,2-trifluoroacetamide] was more than 8.00. With `O=C(N[C@H]1CCCN2c3c(Br)cc(F)cc3Oc3ccccc3[C@H]12)C(F)(F)F` (relative stereo) [Example 56, trans-N-(6-Bromo-8-fluoro-2,3,4,14b-tetrahydro-1H-dibenzo[b,f]pyrido[1,2-d][1,4]oxazepin-1-yl)-2,2,2-trifluoroacetamide], the pEC50 was 5.00 to 7.00.

Take `S=CN[C@H]1CCCN2c3cc(Cl)ccc3Oc3ccccc3[C@H]12` (relative stereo) [Example 18, trans-N-(7-Chloro-2,3,4,14b-tetrahydro-1H-dibenzo[b,f]pyrido[1,2-d][1,4]oxazepin-1-yl)methanethioamide]: the pEC50 was 5.00 to 7.00. Regarding `O=C(N[C@H]1CCCN2c3cc(Cl)ccc3Oc3cccc(F)c3[C@H]12)C(F)(F)F` (relative stereo) [Example 73, trans-N-(7-Chloro-14-fluoro-2,3,4,14b-tetrahydro-1H-dibenzo[b,f]pyrido[1,2-d][1,4]oxazepin-1-yl)-2,2,2-trifluoroacetamide], the negative logarithm of the EC50 (pEC50) was more than 8.00. Same read-out and setting: then `O=C(N[C@H]1CCCN2c3cc(Cl)ccc3Oc3ccccc3[C@H]12)OCCl` (relative stereo) [Example 30, Trans-(7-Chloro-2,3,4,14b-tetrahydro-1H-dibenzo[b,f]pyrido[1,2-d][1,4]oxazepin-1-yl)carbamic Acid Chloromethyl Ester], with 5.00 to 7.00; and `O=C(CCl)NC1CCCN2c3cc(Cl)ccc3Oc3ccccc3C12` (stereo not drawn) [Example 14], with 5.00 to 7.00. For the compound `CC(=O)N[C@H]1CCCN2c3c(ccc(Cl)c3Cl)Oc3ccccc3[C@H]12` (relative stereo) [Example 47, trans-N-(6,7-Dichloro-2,3,4,14b-tetrahydro-1H-dibenzo[b,f]pyrido[1,2-d][1,4]oxazepin-1-yl)acetamide], the negative logarithm of the EC50 (pEC50) is more than 8.00.
